Experiments:
[1] = biological target: D(1A) dopamine receptor (Rattus norvegicus) (UniProt P18901); experiment: (§1) Low-affinity agonist dissociation constant against striatal Dopamine receptor D1A; assay type: functional
[2] = biological target: D(1A) dopamine receptor (Homo sapiens) (UniProt P21728); details: COS-7
[3] = biological target: D(2) dopamine receptor (Rattus norvegicus) (UniProt P61169)
[4] = biological target: D(2) dopamine receptor (Homo sapiens) (UniProt P14416)
[5] = biological target: D(1A) dopamine receptor (Homo sapiens) (UniProt P21728)
[6] = biological target: D(1A) dopamine receptor (Homo sapiens) (UniProt P21728); remark: listed apart in the source
[7] = biological target: D(1A) dopamine receptor (Homo sapiens) (UniProt P21728); details: COS-7; remark: listed apart in the source
[8] = biological target: D(1A) dopamine receptor (Homo sapiens) (UniProt P21728); experiment: as §1; assay type: functional

Chain of D(1A) dopamine receptor (Rattus norvegicus) (P18901 whole entry): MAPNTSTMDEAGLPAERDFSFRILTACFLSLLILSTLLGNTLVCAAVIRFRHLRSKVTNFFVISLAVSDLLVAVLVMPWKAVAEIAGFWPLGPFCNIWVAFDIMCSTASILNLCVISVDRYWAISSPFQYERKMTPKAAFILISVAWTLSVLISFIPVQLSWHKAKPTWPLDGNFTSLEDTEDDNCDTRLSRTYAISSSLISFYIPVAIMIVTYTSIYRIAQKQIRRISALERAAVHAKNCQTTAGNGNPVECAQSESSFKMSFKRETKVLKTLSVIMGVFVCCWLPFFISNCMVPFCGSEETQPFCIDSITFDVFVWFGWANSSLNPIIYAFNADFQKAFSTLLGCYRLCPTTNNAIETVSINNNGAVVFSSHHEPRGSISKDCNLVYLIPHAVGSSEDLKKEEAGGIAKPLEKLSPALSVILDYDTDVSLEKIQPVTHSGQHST
Chain of D(2) dopamine receptor (Rattus norvegicus) (P61169 whole entry): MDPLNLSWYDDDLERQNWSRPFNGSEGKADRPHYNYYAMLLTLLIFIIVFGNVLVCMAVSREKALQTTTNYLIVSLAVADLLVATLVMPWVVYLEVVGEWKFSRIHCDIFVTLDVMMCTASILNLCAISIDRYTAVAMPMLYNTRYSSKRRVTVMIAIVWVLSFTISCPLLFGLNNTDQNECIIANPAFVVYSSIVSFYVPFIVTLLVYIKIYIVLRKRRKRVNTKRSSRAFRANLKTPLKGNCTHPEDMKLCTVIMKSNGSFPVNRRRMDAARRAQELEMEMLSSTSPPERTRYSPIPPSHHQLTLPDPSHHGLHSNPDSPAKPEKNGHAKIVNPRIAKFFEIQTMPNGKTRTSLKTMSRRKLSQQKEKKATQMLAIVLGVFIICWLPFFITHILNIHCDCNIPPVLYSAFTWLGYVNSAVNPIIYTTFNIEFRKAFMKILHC
Chain of D(1A) dopamine receptor (Homo sapiens) (P21728 whole entry): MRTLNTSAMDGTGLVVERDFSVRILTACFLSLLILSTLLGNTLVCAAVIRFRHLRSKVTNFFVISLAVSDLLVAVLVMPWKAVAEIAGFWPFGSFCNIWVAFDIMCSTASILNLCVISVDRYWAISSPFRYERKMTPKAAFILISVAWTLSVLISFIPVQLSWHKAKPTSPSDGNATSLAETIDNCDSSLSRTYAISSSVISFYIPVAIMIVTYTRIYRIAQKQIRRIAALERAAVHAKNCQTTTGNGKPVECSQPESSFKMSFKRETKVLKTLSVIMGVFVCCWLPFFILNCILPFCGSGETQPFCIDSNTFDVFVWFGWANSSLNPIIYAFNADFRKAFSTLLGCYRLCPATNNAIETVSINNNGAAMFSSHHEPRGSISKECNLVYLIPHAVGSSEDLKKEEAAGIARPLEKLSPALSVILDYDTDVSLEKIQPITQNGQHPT
Chain of D(2) dopamine receptor (Homo sapiens) (P14416 whole entry): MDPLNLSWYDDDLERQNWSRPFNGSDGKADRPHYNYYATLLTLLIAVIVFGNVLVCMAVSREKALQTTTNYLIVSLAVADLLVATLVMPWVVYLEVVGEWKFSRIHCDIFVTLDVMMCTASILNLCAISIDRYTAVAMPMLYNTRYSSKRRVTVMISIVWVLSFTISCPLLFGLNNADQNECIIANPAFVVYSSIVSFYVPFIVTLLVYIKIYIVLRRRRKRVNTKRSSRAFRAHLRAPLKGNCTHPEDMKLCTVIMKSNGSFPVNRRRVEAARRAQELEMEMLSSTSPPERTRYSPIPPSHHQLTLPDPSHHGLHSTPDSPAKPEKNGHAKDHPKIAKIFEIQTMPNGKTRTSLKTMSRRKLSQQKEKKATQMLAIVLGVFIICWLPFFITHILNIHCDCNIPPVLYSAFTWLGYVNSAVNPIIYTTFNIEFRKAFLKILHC

Structure (SMILES)	KL [1]	KL [3]	also measured
Oc1cc2c(cc1O)[C@@H](c1ccccc1)CNCC2	381 nM	–	–
NC[C@H](O)c1ccc(O)c(O)c1	4140 nM	126 µM	Log 1/Kd [2]: 4.69
CN1CCc2cccc3c2[C@H]1Cc1ccc(O)c(O)c1-3	–	–	KL [4]: 127 nM; KL [5]: 206 nM
C=CCN1CCc2c(cc(O)c(O)c2Cl)[C@@H](c2ccccc2)C1	–	–	KL [6]: 83 nM; Log 1/KL [7]: -1.92
NCCc1ccc(O)c(O)c1	580 nM	–	–
Oc1ccc([C@@H]2CNCCc3c2cc(O)c(O)c3Cl)cc1	1340 nM	–	–
Oc1ccc(C2CNCCc3c2cc(O)c(O)c3Cl)cc1 (stereo unspecified)	21 nM	1 µM	–
CN(C)C1CCc2cc(O)c(O)cc2C1 (stereo unspecified)	734 nM	0.463 µM	–
CCCN1CCc2cccc3c2[C@H]1Cc1ccc(O)c(O)c1-3	625 nM	0.023 µM	–
NCCc1c[nH]c2ccc(O)cc12	6540 nM	183 µM	–
CCCN1CCc2cccc3c2[C@@H]1Cc1ccc(O)c(O)c1-3	–	–	KL [8]: 5.2 µM
CNC[C@H](O)c1ccc(O)c(O)c1	980 nM	128 µM	–

— ChEMBL document CHEMBL1129489
